What was measured:
MDA-MB-231 = experiment: Cell viability assay (CellTiter-Meiluncell Luminescent), tumor cell proliferation, MDA-MB-231; conditions: Homo sapiens, MDA-MB-231, 96 h; for inhibition at 0.01 µM: read-out: Inhibition Rate at 10 nM (%); for inhibition at 0.5 µM: read-out: Inhibition Rate at 500 nM (%)
Description: (§1) The tumor cells used herein were cultured in a cell culture medium listed in table 2 at 37°C in an incubator with 5% CO2. Prior to experimentation, all cell lines used were correctly identified by STR profiling, and tested negative for mycoplasma contamination using a mycoplasma detection kit through routine screenings.
(§2) On the following day, the test compounds of the present disclosure were subjected to serial dilution. […] Subsequently, 0.5 µL of the test compound dilution was transferred into the 96-well plate containing the cells, with each well containing 100 µL of cell culture medium. […] Into the 96-well plate, the diluted test compounds and corresponding detection reagents were added, resulting in final test compound concentrations of 500 nM and 10 nM, respectively. The experimental procedure is described below using the diluted 2 µM test compound as an example.
(§3) After the cells were treated with the compounds of the present disclosure for a specified period, the cell viability assay reagent was added to the culture medium according to the kit's instructions to determine cell viability. […] All controls were treated using the same procedure as the compounds of the present disclosure. The growth inhibition curves for the compounds of the present disclosure were plotted using Prism GraphPad software, and the IC50 values were calculated therefrom.

H292 = experiment: Cell viability assay (CellTiter-Meiluncell Luminescent), tumor cell proliferation, H292; conditions: Homo sapiens, NCI-H292, 96 h; for inhibition at 0.01 µM: read-out: Inhibition Rate at 10 nM (%); for inhibition at 0.5 µM: read-out: Inhibition Rate at 500 nM (%)
WEE1 = target: T1, WEE1 (Homo sapiens, UniProt P30291+Q96SW2); experiment: Western-blot assay, substrate protein degradation in hPBMCs: WEE1; format: cell-based; conditions: 24 hours of compound treatment, 50 nM and 500 nM
T1 construct: effects of the compounds of the present disclosure on the expression of target proteins in cells; endogenous in cells; host or cells: human PBMCs (hPBMCs)
T1 sequence (P30291 whole entry): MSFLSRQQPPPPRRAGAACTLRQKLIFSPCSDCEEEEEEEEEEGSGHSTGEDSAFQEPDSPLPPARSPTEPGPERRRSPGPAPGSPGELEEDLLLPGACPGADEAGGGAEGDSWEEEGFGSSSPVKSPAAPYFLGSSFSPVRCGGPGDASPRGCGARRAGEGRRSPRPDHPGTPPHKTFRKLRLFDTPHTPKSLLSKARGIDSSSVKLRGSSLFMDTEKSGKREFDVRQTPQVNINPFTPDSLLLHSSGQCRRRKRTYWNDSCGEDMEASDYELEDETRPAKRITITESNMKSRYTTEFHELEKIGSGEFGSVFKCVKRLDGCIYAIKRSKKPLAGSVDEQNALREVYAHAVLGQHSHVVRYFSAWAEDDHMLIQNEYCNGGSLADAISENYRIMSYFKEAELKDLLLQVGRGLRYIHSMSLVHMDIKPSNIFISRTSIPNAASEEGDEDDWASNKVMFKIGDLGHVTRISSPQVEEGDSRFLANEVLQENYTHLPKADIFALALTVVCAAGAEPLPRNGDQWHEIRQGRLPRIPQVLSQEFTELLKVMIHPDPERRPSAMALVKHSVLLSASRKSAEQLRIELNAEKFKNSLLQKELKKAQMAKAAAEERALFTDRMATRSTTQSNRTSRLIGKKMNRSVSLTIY
T1 sequence (Q96SW2 whole entry): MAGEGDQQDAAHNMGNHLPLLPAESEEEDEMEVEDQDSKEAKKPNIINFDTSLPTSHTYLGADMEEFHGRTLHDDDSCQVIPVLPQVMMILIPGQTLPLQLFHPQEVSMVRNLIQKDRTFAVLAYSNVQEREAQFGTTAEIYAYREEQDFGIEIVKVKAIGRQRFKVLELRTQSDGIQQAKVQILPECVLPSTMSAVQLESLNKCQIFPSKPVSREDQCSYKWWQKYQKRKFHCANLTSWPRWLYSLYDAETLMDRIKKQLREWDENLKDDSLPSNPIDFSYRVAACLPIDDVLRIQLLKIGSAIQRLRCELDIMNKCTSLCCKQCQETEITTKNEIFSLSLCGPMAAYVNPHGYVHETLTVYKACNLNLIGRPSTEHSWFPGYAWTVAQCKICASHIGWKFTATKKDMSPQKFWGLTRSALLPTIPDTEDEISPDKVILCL
T1 sequence (Q16531 whole entry partner): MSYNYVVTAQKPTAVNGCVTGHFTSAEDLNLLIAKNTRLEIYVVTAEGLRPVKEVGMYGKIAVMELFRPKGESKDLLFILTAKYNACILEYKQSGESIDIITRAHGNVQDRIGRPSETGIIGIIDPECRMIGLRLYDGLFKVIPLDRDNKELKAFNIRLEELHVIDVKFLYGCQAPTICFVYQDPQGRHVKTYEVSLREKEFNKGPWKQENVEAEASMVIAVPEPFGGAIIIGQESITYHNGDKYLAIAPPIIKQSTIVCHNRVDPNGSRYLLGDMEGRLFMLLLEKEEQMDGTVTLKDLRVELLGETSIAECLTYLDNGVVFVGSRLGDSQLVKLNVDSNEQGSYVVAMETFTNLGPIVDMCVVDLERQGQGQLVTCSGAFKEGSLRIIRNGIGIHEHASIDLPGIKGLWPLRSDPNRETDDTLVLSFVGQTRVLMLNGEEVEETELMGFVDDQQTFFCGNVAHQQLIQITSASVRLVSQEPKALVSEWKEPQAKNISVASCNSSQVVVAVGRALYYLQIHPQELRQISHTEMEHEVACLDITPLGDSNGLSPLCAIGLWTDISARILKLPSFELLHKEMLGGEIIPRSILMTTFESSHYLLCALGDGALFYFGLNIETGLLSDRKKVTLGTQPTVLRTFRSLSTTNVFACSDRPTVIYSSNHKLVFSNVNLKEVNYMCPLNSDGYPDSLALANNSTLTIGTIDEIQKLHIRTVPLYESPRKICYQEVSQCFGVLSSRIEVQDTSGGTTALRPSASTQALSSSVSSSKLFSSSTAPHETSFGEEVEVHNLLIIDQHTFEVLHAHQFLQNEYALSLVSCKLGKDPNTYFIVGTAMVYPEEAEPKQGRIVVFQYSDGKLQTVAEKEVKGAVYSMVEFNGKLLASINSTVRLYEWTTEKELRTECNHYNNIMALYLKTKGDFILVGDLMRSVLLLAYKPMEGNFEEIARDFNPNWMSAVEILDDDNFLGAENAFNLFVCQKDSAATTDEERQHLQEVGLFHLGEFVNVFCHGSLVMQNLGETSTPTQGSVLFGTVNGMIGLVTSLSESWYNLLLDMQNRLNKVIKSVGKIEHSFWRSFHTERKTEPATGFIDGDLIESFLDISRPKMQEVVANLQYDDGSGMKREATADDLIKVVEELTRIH

IKZF1 = target: T2, IKZF1 (Homo sapiens, UniProt Q13422+Q96SW2); experiment: Western-blot assay, substrate protein degradation in hPBMCs: IKZF1; format: cell-based; conditions: 24 hours of compound treatment, 50 nM and 500 nM
T2 construct: effects of the compounds of the present disclosure on the expression of target proteins in cells; endogenous in cells; host or cells: human PBMCs (hPBMCs)
T2 sequence (Q13422 whole entry): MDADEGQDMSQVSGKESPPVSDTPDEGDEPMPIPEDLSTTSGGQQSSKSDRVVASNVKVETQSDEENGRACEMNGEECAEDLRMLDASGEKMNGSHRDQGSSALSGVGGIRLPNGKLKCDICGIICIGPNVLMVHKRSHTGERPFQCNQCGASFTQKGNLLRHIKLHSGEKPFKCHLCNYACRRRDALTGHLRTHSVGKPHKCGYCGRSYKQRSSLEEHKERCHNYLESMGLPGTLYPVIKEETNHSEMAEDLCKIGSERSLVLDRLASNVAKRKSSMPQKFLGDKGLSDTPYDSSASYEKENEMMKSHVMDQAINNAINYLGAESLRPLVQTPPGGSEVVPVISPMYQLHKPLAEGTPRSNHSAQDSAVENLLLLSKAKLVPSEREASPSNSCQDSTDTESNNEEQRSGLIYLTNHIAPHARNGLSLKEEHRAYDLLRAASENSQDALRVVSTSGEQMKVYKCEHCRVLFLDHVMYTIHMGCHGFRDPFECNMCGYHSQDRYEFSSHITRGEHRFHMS
T2 sequence (Q96SW2 whole entry): as the sequence (Q96SW2 whole entry) above
T2 sequence (Q16531 whole entry partner): as the sequence (Q16531 whole entry partner) above

CK1α = target: T3, CK1α (Homo sapiens, UniProt P48729+Q96SW2); experiment: Western-blot assay, substrate protein degradation in hPBMCs: CK1α; format: cell-based; conditions: 24 hours of compound treatment, 50 nM and 500 nM
T3 construct: effects of the compounds of the present disclosure on the expression of target proteins in cells; endogenous in cells; host or cells: human PBMCs (hPBMCs)

IKZF2 = target: T4, IKZF2 (Homo sapiens, UniProt Q96SW2+Q9UKS7); experiment: Western-blot assay, substrate protein degradation in hPBMCs: IKZF2; format: cell-based; conditions: 24 hours of compound treatment, 50 nM and 500 nM
T4 construct: effects of the compounds of the present disclosure on the expression of target proteins in cells; endogenous in cells; host or cells: human PBMCs (hPBMCs)
T4 sequence (Q9UKS7 whole entry): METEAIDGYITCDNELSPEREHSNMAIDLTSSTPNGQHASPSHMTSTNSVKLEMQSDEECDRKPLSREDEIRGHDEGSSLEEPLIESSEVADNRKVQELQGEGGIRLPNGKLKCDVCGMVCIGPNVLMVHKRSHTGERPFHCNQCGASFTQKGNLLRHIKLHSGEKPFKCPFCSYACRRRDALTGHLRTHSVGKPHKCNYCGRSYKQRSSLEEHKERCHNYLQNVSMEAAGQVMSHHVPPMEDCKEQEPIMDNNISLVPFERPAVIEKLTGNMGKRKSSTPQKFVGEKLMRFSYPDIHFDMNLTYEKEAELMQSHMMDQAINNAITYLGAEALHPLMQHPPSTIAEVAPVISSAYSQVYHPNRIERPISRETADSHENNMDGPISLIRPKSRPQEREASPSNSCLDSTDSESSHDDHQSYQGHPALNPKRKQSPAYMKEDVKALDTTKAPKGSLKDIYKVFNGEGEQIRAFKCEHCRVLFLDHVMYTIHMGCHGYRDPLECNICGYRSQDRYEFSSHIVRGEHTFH
T4 sequence (Q96SW2 whole entry): as the sequence (Q96SW2 whole entry) above
T4 sequence (Q16531 whole entry partner): as the sequence (Q16531 whole entry partner) above

IKZF3 = target: T5, IKZF3 (Homo sapiens, UniProt Q96SW2+Q9UKT9); experiment: Western-blot assay, substrate protein degradation in hPBMCs: IKZF3; format: cell-based; conditions: 24 hours of compound treatment, 50 nM and 500 nM
T5 construct: effects of the compounds of the present disclosure on the expression of target proteins in cells; endogenous in cells; host or cells: human PBMCs (hPBMCs)
T5 sequence (Q9UKT9 whole entry): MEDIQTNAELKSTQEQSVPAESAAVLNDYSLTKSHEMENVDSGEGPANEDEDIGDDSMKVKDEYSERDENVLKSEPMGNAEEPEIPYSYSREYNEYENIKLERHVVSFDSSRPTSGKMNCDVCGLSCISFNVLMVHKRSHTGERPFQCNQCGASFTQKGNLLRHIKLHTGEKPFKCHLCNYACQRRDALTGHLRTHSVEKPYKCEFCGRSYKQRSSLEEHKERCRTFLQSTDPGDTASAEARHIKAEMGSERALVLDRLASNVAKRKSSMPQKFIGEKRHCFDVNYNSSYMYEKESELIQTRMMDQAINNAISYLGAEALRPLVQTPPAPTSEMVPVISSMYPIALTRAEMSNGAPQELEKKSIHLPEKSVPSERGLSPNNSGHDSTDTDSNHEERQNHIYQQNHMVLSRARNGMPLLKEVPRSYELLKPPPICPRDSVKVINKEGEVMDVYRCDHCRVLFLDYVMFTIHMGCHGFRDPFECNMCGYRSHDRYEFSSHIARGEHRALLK
T5 sequence (Q96SW2 whole entry): as the sequence (Q96SW2 whole entry) above
T5 sequence (Q16531 whole entry partner): as the sequence (Q16531 whole entry partner) above

GSPT1 = target: T6, GSPT1 (Homo sapiens, UniProt P15170+Q96SW2); experiment: Western-blot assay, substrate protein degradation in hPBMCs: GSPT1; format: cell-based; conditions: 24 hours of compound treatment, 50 nM and 500 nM
T6 construct: effects of the compounds of the present disclosure on the expression of target proteins in cells; endogenous in cells; host or cells: human PBMCs (hPBMCs)
T6 sequence (P15170 whole entry): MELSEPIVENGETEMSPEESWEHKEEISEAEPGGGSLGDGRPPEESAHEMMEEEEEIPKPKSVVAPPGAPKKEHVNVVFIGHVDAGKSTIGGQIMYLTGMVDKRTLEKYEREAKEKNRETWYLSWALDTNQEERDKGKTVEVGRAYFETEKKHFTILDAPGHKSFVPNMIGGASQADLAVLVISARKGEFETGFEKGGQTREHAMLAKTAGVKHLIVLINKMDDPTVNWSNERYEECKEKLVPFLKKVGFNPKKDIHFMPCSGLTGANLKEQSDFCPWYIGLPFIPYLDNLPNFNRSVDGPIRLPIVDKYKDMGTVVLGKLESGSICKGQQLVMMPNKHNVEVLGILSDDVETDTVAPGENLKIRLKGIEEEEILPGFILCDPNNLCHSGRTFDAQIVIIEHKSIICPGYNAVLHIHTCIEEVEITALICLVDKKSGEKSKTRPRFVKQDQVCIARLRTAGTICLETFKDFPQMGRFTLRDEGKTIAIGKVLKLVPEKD
T6 sequence (Q96SW2 whole entry): as the sequence (Q96SW2 whole entry) above
T6 sequence (Q16531 whole entry partner): as the sequence (Q16531 whole entry partner) above

MV-4-11 = experiment: Cell viability assay (CellTiter-Meiluncell Luminescent), tumor cell proliferation, MV-4-11; conditions: Homo sapiens, MV4-11, 96 h; for inhibition at 0.01 µM: read-out: Inhibition Rate at 10 nM (%); for inhibition at 0.5 µM: read-out: Inhibition Rate at 500 nM (%)
Description: as §1, §2, §3

SMILES | inhibition at 0.01 µM (MDA-MB-231) [%] | inhibition at 0.5 µM (MDA-MB-231) [%] | inhibition at 0.01 µM (H292) [%] | inhibition at 0.5 µM (H292) [%] | substrate protein remaining % WEE1 (WEE1) | substrate protein remaining % IKZF1 (IKZF1) | substrate protein remaining % CK1α (CK1α) | substrate protein remaining % IKZF2 (IKZF2) | substrate protein remaining % IKZF3 (IKZF3) | substrate protein remaining % GSPT1 (GSPT1) | inhibition at 0.01 µM (MV-4-11) [%] | inhibition at 0.5 µM (MV-4-11) [%]
CC1(C)[C@@H]2CC[C@]1(CS(=O)(=O)NCc1ccc3c(c1)C(=O)N(N1CCC(=O)NC1=O)C3=O)C(=O)C2 [GT-07998, 1-((1R,4R)-7,7-dimethyl-2-oxobicyclo[2.2.1]heptan-1-yl)-N-((2-(2,4-dioxotetrahydropyrimidin-1(2H)-yl)-1,3-dioxoisoindolin-5-yl)methyl)methanesulfonamide] | 25 to 40 | 10 to 15 | 15 to 20 | 1 to 5 | – | – | – | – | – | – | – | –
Cc1csc2ncnc(N3CCN(Cc4ccc5c(c4)CN(N4CCC(=O)NC4=O)C5=O)CC3)c12 [GT-08058, 1-(5-((4-(5-methylthieno[2,3-d]pyrimidin-4-yl)piperazin-1-yl)methyl)-1-oxoisoindolin-2-yl)dihydropyrimidine-2,4(1H,3H)-dione] | 25 to 40 | 15 to 18 | – | – | B (80%< substrate protein remaining %≤ 100%) | A (0% ≤ substrate protein remaining % ≤ 80%) | B (80%< substrate protein remaining %≤ 100%) | B (80%< substrate protein remaining %≤ 100%) | B (80%< substrate protein remaining %≤ 100%) | B (80%< substrate protein remaining %≤ 100%) | – | –
O=C1CCN(N2C(=O)c3ccc(CN4CCC(c5ncnc6sc(-c7ccccc7)cc56)CC4)cc3C2=O)C(=O)N1 [GT-08108, 2-(2,4-dioxotetrahydropyrimidin-1(2H)-yl)-5-((4-(6-phenylthieno[2,3-d]pyrimidin-4-yl)piperidin-1-yl)methyl)isoindoline-1,3-dione] | 25 to 40 | 18 to 25 | 20 to 40 | 15 to 20 | A (0% ≤ substrate protein remaining % ≤ 80%) | A (0% ≤ substrate protein remaining % ≤ 80%) | A (0% ≤ substrate protein remaining % ≤ 80%) | A (0% ≤ substrate protein remaining % ≤ 80%) | A (0% ≤ substrate protein remaining % ≤ 80%) | A (0% ≤ substrate protein remaining % ≤ 80%) | – | –
O=C1CCN(N2C(=O)c3ccc(CN4CC(=C5CCOc6cc(F)ccc65)C4)cc3C2=O)C(=O)N1 [GT-07888, 2-(2,4-dioxotetrahydropyrimidin-1(2H)-yl)-5-((3-(7-fluorochroman-4-ylidene)azetidin-1-yl)methyl)isoindoline-1,3-dione] | 18 to 25 | 18 to 25 | 5 to 10 | 10 to 15 | – | – | – | – | – | – | 40 to 60 | 40 to 60
NCc1ccc2c(c1)CN(N1CCC(=O)NC1=O)C2=O [GT-08118, 1-(5-(aminomethyl)-1-oxoisoindolin-2-yl)dihydropyrimidine-2,4(1H,3H)-dione] | 18 to 25 | 25 to 40 | 20 to 40 | 20 to 40 | – | – | – | – | – | – | 40 to 60 | 40 to 60
Cc1csc2ncnc(C3=CCN(Cc4ccc5c(c4)CN(N4CCC(=O)NC4=O)C5=O)CC3)c12 [GT-08117, 1-(5-((4-(5-methylthieno[2,3-d]pyrimidin-4-yl)-3,6-dihydropyridin-1(2H)-yl)methyl)-1-oxoisoindolin-2-yl)dihydropyrimidine-2,4(1H,3H)-dione] | 18 to 25 | 18 to 25 | 20 to 40 | 20 to 40 | B (80%< substrate protein remaining %≤ 100%) | B (80%< substrate protein remaining %≤ 100%) | A (0% ≤ substrate protein remaining % ≤ 80%) | B (80%< substrate protein remaining %≤ 100%) | A (0% ≤ substrate protein remaining % ≤ 80%) | A (0% ≤ substrate protein remaining % ≤ 80%) | – | –
O=C1CCN(N2Cc3cc(CNC45CC6CC(CC(C6)C4)C5)ccc3C2=O)C(=O)N1 [GT-07806, 1-(5-((((3s,5s,7s)-adamantan-1-yl)amino)methyl)-1-oxoisoindolin-2-yl)dihydropyrimidine-2,4(1H,3H)-dione] | 18 to 25 | 18 to 25 | 15 to 20 | 15 to 20 | – | – | – | – | – | – | 5 to 10 | 25 to 30
O=C1CCN(N2C(=O)c3ccc(CN4CCC(c5ncnc6scc(-c7ccccc7)c56)CC4)cc3C2=O)C(=O)N1 [GT-08109, 2-(2,4-dioxotetrahydropyrimidin-1(2H)-yl)-5-((4-(5-phenylthieno[2,3-d]pyrimidin-4-yl)piperidin-1-yl)methyl)isoindoline-1,3-dione] | 18 to 25 | 5 to 10 | 15 to 20 | 1 to 5 | A (0% ≤ substrate protein remaining % ≤ 80%) | A (0% ≤ substrate protein remaining % ≤ 80%) | A (0% ≤ substrate protein remaining % ≤ 80%) | A (0% ≤ substrate protein remaining % ≤ 80%) | A (0% ≤ substrate protein remaining % ≤ 80%) | A (0% ≤ substrate protein remaining % ≤ 80%) | – | –
O=C1CCN(N2C(=O)c3ccc(CN4CCN(c5nccc(Cl)c5F)CC4)cc3C2=O)C(=O)N1 [GT-08190, 5-((4-(4-chloro-3-fluoropyridin-2-yl)piperazin-1-yl)methyl)-2-(2,4-dioxotetrahydropyrimidin-1(2H)-yl)isoindoline-1,3-dione] | 18 to 25 | 10 to 15 | 20 to 40 | 20 to 40 | – | – | – | – | – | – | – | –
O=C1CCN(N2Cc3cc(CN4CCN(c5ncc6ccsc6n5)CC4)ccc3C2=O)C(=O)N1 [GT-08081, 1-(1-oxo-5-((4-(thieno[2,3-d]pyrimidin-2-yl)piperazin-1-yl)methyl)isoindolin-2-yl)dihydropyrimidine-2,4(1H,3H)-dione] | 18 to 25 | 5 to 10 | – | – | A (0% ≤ substrate protein remaining % ≤ 80%) | B (80%< substrate protein remaining %≤ 100%) | A (0% ≤ substrate protein remaining % ≤ 80%) | B (80%< substrate protein remaining %≤ 100%) | B (80%< substrate protein remaining %≤ 100%) | A (0% ≤ substrate protein remaining % ≤ 80%) | 18 to 25 | 25 to 30
Cc1nc(C2CCN(Cc3ccc4c(c3)CN(N3CCC(=O)NC3=O)C4=O)CC2)c2c3c(sc2n1)CCC3 [GT-08114, 1-(5-((4-(2-methyl-6,7-dihydro-5H-cyclopenta[4,5]thieno[2,3-d]pyrimidin-4-yl)piperidin-1-yl)methyl)-1-oxoisoindolin-2-yl)dihydropyrimidine-2,4(1H,3H)-dione] | 18 to 25 | 18 to 25 | 20 to 40 | 10 to 15 | B (80%< substrate protein remaining %≤ 100%) | B (80%< substrate protein remaining %≤ 100%) | B (80%< substrate protein remaining %≤ 100%) | B (80%< substrate protein remaining %≤ 100%) | B (80%< substrate protein remaining %≤ 100%) | A (0% ≤ substrate protein remaining % ≤ 80%) | – | –
Cc1nc(N2CCN(Cc3ccc4c(c3)CN(N3CCC(=O)NC3=O)C4=O)CC2)c2ccsc2n1 [GT-08067, 1-(5-((4-(2-methylthieno[2,3-d]pyrimidin-4-yl)piperazin-1-yl)methyl)-1-oxoisoindolin-2-yl)dihydropyrimidine-2,4(1H,3H)-dione] | – | – | 20 to 40 | 20 to 40 | B (80%< substrate protein remaining %≤ 100%) | B (80%< substrate protein remaining %≤ 100%) | B (80%< substrate protein remaining %≤ 100%) | A (0% ≤ substrate protein remaining % ≤ 80%) | B (80%< substrate protein remaining %≤ 100%) | B (80%< substrate protein remaining %≤ 100%) | 60 to 80 | 40 to 60
